Test results from patent publication US8252793B2, “Bradykinin receptor agonists and uses thereof to treat ocular hypertension and glaucoma” (Alcon Research, Ltd., priority 2010, dated 2012).

How the values were obtained:
[1] = target: T1, recombinant human bradykinin B2 receptor (Homo sapiens, UniProt P30411); assay: [3H]-BK competition radioligand binding to human cloned B2 receptor (CHO cell membranes); details: 0.2 nM [3H]-bradykinin, CHO membranes, 60 min 23° C.; mean ± SEM or single value; Ki from IC50 by Cheng-Prusoff; read-out: [3H]-BK Binding to Human Cloned B2 Receptor (Ki)
T1 construct: expressed in transfected cells; host or cells: Chinese hamster ovary (CHO) cells, membrane homogenates
T1 sequence (P30411 1-391): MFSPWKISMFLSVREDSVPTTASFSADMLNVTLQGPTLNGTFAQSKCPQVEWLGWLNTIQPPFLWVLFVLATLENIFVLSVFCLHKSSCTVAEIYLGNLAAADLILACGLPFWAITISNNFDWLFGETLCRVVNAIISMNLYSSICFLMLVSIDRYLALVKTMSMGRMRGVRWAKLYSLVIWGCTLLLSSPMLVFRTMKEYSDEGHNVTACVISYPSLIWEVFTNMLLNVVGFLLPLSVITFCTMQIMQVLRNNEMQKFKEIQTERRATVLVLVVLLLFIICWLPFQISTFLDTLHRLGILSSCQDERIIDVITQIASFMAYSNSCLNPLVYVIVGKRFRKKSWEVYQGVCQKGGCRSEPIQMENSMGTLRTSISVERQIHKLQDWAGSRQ

[2] = target: T2, BK receptors in human ciliary muscle cells (h-CM) (Homo sapiens, UniProt P30411); assay: Functional assay measuring [Ca2+]i mobilization (FLIPR) in h-CM cells; type: cell-based; details: class symbols (in μM), read-out: CaM (EC50)
T2 construct: h-CM cells expressing BK receptors were seeded; endogenous in cells; host or cells: human ciliary muscle (h-CM) cells
T2 sequence (P30411 1-391): T1 sequence (P30411 1-391)
Outline: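 Human ciliary muscle cells loaded 1 h at 23 °C with FLIPR calcium dye in HBSS, 20 mM HEPES, 2.5 mM probenecid, pH 7.4. EC50 by 4-parameter fit.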

[3] = system: primary human ciliary muscle cells (h-CM); assay: Total prostaglandin (PG) release from primary h-CM cells (EIA); type: cell-based; details: Homo sapiens, 1 h, 1 hour at 37° C., class symbols (in μM)
Outline: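 Confluent primary h-CM cells, serum-starved (0.8% FBS) 24 h, were exposed to a 9-point concentration series (0.1 nM-10 μM) of bradykinin or BK agonist for 1 hour at 37° C. Total PG released was then quantified by EIA.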

SMILES	Ki [1]	EC50 [2]	EC50 [3]
CNC(=O)c1ccc(OCC(=O)NCC(=O)N(C)c2ccc(Cl)c(COc3cccc4c3nc(OC)n4Cc3ccccn3)c2Cl)cc1 [Compound 68]	59.5 nM	< 0.1 µM	0.1 to 1 µM
CNC(=O)c1ccc(C(=O)NCC(=O)N(C)c2ccc(Cl)c(COc3cccc4c3nc(OC)n4Cc3ccccn3)c2Cl)cn1 [Compound 69]	178 nM	< 0.1 µM	< 0.1 µM
CNC(=O)c1ccc(CCC(=O)NCC(=O)N(C)c2ccc(Cl)c(COc3cccc4c(OCc5nccn5C)cc(C)nc34)c2Cl)cc1 [Compound 71]	17 nM	< 0.1 µM	< 0.1 µM
COc1nc2c(OCc3c(Cl)ccc(N(C)C(=O)CNC(=O)CCC4CN=C(N[N+](=O)[O-])NC4)c3Cl)cccc2n1Cc1ccccn1 (stereo not drawn) [Compound 76]	237 nM	< 0.1 µM	> 1 µM
CNC(=O)N1CCOC(CC(=O)NCC(=O)N(C)c2ccc(Cl)c(COc3cccc4c3nc(OC)n4Cc3ccccn3)c2Cl)C1 (stereo not drawn) [Compound 79]	859 nM	0.1 to 1 µM	> 1 µM
COc1nc2c(OCc3c(Cl)ccc(N(C)C(=O)CNC(=O)CN4CCOC(C(=O)NCCO)C4)c3Cl)cccc2n1Cc1ccccn1 (stereo not drawn) [Compound 80]	279 nM	< 0.1 µM	0.1 to 1 µM
CNC(=O)C1CNCC(CC(=O)NCC(=O)N(C)c2ccc(Cl)c(COc3cccc4c3nc(OC)n4Cc3ccccn3)c2Cl)C1 (stereo not drawn) [Compound 81]	108 nM	< 0.1 µM	> 1 µM
CNC(=O)c1ccc(CCC(=O)NCC(=O)N(C)c2ccc(Cl)c(COc3cccc4c3nc(OC)n4Cc3nccn3C)c2Cl)cc1 [Compound 82]	205 nM	< 0.1 µM	> 1 µM
COc1nc2c(OCc3c(Cl)ccc(N(C)C(=O)CNC(=O)CN4CCO[C@@H](C(=O)NC5CC5)C4)c3Cl)cccc2n1Cc1ccccn1 [Compound 84]	78.3 nM	< 0.1 µM	< 0.1 µM

Results, then the molecule that gave them:

Ki [1]	EC50 [2]	EC50 [3]	SMILES
98.4 nM	< 0.1 µM	< 0.1 µM	COc1nc2c(OCc3c(Cl)ccc(N(C)C(=O)CNC(=O)CCc4ccc(C(=O)NCCO)cc4)c3Cl)cccc2n1Cc1ccccn1 [Compound 65]
599 nM	< 0.1 µM	0.1 to 1 µM	COc1nc2c(OCc3c(Cl)ccc(N(C)C(=O)CNC(=O)CCCNC(C)=O)c3Cl)cccc2n1Cc1ccccn1 [Compound 70]
184 nM	< 0.1 µM	0.1 to 1 µM	COc1nc2c(OCc3c(Cl)ccc(N(C)C(=O)CNC(=O)CCc4ccc(NC(=O)CN(C)C)nc4)c3Cl)cccc2n1Cc1ccccn1 [Compound 73]
384 nM	< 0.1 µM	0.1 to 1 µM	COc1nc2c(OCc3c(Cl)ccc(N(C)C(=O)CNC(=O)CCc4ccc(NC(=O)CN)nc4)c3Cl)cccc2n1Cc1ccccn1 [Compound 74, 3-(6-(2-aminoacetamido)pyridin-3-yl)-N-(2-((2,4-dichloro-3-(((2-methoxy-1-(pyridin-2-ylmethyl)-1H-benzo[d]imidazol-4-yl)oxy)methyl)phenyl)(methyl)amino)-2-oxoethyl)propanamide]
544 nM	< 0.1 µM	0.1 to 1 µM	COc1nc2c(OCc3c(Cl)ccc(N(C)C(=O)CNC(=O)COc4cnc(NC(C)=O)nc4)c3Cl)cccc2n1Cc1ccccn1 [Compound 75]
229 nM	< 0.1 µM	0.1 to 1 µM	COc1nc2c(OCc3c(Cl)ccc(N(C)C(=O)CNC(=O)CCc4cnc(NC(C)=O)nc4)c3Cl)cccc2n1Cc1ccccn1 [Compound 77]
329 nM	< 0.1 µM	> 1 µM	CNCc1ccc(CCC(=O)NCC(=O)N(C)c2ccc(Cl)c(COc3cccc4c3nc(OC)n4Cc3ccccn3)c2Cl)cc1 [Compound 83]
